Test results: PubChem BioAssay AID1963873 (Molecular Pharmacology Branch, DTP, NCI, 2024)
pIC50: −log10 of the molar value.

Tested on: 276233-004-R-J1-PDC KRAS spheroids with HUVEC/MSC, viability
Test: Anticancer human tumor 276233-004-R-J1-PDC patient-derived colon adenocarcinoma cell line growth inhibition [KRAS2]
Conditions: for viability, T/C: stronger effect = lower value
Procedure, shortened: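 Combination screen of spheroid viability in tumor-cell co-cultures with endothelial (HUVEC) and mesenchymal stem cell stroma. Each agent was tested in half-log dilutions, topping at clinical Cmax or at 10 microM without a known Cmax.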

[1] = curve of first compound, second compound 0.1 µM
[2] = curve of first compound, second compound 0.316 µM
[3] = curve of first compound, second compound 1 µM
[4] = curve of first compound, second compound 3.16 µM
[5] = curve of first compound, second compound 10 µM
[6] = second compound 0.1 µM, first compound 0.0316 µM
[7] = second compound 0.1 µM, first compound 0.1 µM
[8] = second compound 0.1 µM, first compound 0.316 µM
[9] = second compound 0.1 µM, first compound 1 µM
[10] = second compound 0.316 µM, first compound 0.0316 µM
[11] = second compound 0.316 µM, first compound 0.1 µM
[12] = second compound 0.316 µM, first compound 0.316 µM
[13] = second compound 0.316 µM, first compound 1 µM
[14] = second compound 1 µM, first compound 0.0316 µM
[15] = second compound 1 µM, first compound 0.1 µM
[16] = second compound 1 µM, first compound 0.316 µM
[17] = second compound 1 µM, first compound 1 µM
[18] = second compound 3.16 µM, first compound 0.0316 µM
[19] = second compound 3.16 µM, first compound 0.1 µM
[20] = second compound 3.16 µM, first compound 0.316 µM
[21] = second compound 3.16 µM, first compound 1 µM
[22] = second compound 10 µM, first compound 0.0316 µM
[23] = second compound 10 µM, first compound 0.1 µM
[24] = second compound 10 µM, first compound 0.316 µM
[25] = second compound 10 µM, first compound 1 µM
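Note: cells exposed to agents for seven days before viability read.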
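Throughout, for viability, T/C: 100% = DMSO vehicle control wells and lower values mean fewer viable cells.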

SMILES: CCN1CCN(Cc2ccc(Nc3ncc(F)c(-c4cc(F)c5nc(C)n(C(C)C)c5c4)n3)nc2)CC1 + COc1cc2nc(C)nc(NC(C)c3cc(N)cc(C(F)(F)F)c3)c2cc1OC1CCOC1
- pIC50 [1]: < 6.00
- pIC50 [2]: < 6.00
- pIC50 [3]: < 6.00
- pIC50 [4]: < 6.00
- pIC50 [5]: > 8.50
- viability, T/C (second compound 0.1 µM, first compound 0.00316 µM): 89.2%
- viability, T/C (second compound 0.1 µM, first compound 0.01 µM): 98.1%
- viability, T/C [6]: 88.7%
- viability, T/C [7]: 84.5%
- viability, T/C [8]: 91.5%
- viability, T/C [9]: 115%
- viability, T/C (second compound 0.316 µM, first compound 0.00316 µM): 110%
- viability, T/C (second compound 0.316 µM, first compound 0.01 µM): 80.9%
- viability, T/C [10]: 82.4%
- viability, T/C [11]: 107%
- viability, T/C [12]: 98.8%
- viability, T/C [13]: 86.8%
- viability, T/C (second compound 1 µM, first compound 0.00316 µM): 105%
- viability, T/C (second compound 1 µM, first compound 0.01 µM): 88%
- viability, T/C [14]: 101%
- viability, T/C [15]: 80.2%
- viability, T/C [16]: 96.9%
- viability, T/C [17]: 102%
- viability, T/C (second compound 3.16 µM, first compound 0.00316 µM): 82.2%
- viability, T/C (second compound 3.16 µM, first compound 0.01 µM): 96.5%
- viability, T/C [18]: 74.1%
- viability, T/C [19]: 81.1%
- viability, T/C [20]: 89.4%
- viability, T/C [21]: 74.3%
- viability, T/C (second compound 10 µM, first compound 0.00316 µM): 47.1%
- viability, T/C (second compound 10 µM, first compound 0.01 µM): 44.4%
- viability, T/C [22]: 26%
- viability, T/C [23]: 19.7%
- viability, T/C [24]: 4.33%
- viability, T/C [25]: 2.22%

SMILES: O=C(c1cc(Cc2n[nH]c(=O)c3ccccc23)ccc1F)N1CCN(C(=O)C2CC2)CC1
- viability, T/C (compound 0.1 µM): 91.9% [middle of 5 runs]
- viability, T/C (compound 0.316 µM): 84.4% [middle of 5 runs]
- viability, T/C (compound 1 µM): 89.5% [middle of 5 runs]
- pIC50 (curve of compound): < 5.00

SMILES: CC1OCC2(CCN(c3cnc(Sc4ccnc(N)c4Cl)c(N)n3)CC2)C1N (centres undefined) + CNCc1ccccc1-c1csc(C(C)Nc2nc(C)nc3cc(OC)c(OC)cc23)c1
- pIC50 [1]: < 5.00
- pIC50 [2]: < 5.00
- pIC50 [3]: 6.41
- pIC50 [4]: > 7.50
- pIC50 [5]: > 7.50
- viability, T/C [6]: 73.8%
- viability, T/C [7]: 101%
- viability, T/C [8]: 66.1%
- viability, T/C [9]: 82%
- viability, T/C (second compound 0.1 µM, first compound 3.16 µM): 73.3%
- viability, T/C (second compound 0.1 µM, first compound 10 µM): 59%
- viability, T/C [10]: 92.8%
- viability, T/C [11]: 90.2%
- viability, T/C [12]: 68.6%
- viability, T/C [13]: 60.9%
- viability, T/C (second compound 0.316 µM, first compound 3.16 µM): 66%
- viability, T/C (second compound 0.316 µM, first compound 10 µM): 46.5%
- viability, T/C [14]: 88.9%
- viability, T/C [15]: 84.1%
- viability, T/C [16]: 50.8%
- viability, T/C [17]: 50%
- viability, T/C (second compound 1 µM, first compound 3.16 µM): 50.3%
- viability, T/C (second compound 1 µM, first compound 10 µM): 34.5%
- viability, T/C [18]: 0.87%
- viability, T/C [19]: 0.85%
- viability, T/C [20]: 1.57%
- viability, T/C [21]: 2.11%
- viability, T/C (second compound 3.16 µM, first compound 3.16 µM): 0.56%
- viability, T/C (second compound 3.16 µM, first compound 10 µM): 3.18%
- viability, T/C [22]: 1.45%
- viability, T/C [23]: 3.57%
- viability, T/C [24]: 0.22%
- viability, T/C [25]: 0.25%
- viability, T/C (second compound 10 µM, first compound 3.16 µM): 0.32%
- viability, T/C (second compound 10 µM, first compound 10 µM): 5.87%
